Laboratory results as given in patent publication US4223146A, “4,5,6,7-Tetrahydroimidazo-[4,5-c]-pyridine derivatives” (Farmitalia Carlo Erba S.p.A., priority 1978, dated 1980).
Read-outs that look alike come from different tables or passages of the source.

Assays:
restraint ulcer = assay: Inhibition of Restraint Ulcer in Rats; format: in vivo, Sprague-Dawley rats (male); conditions: Rattus norvegicus
Experimental: (B 1) Inhibition of Restraint Ulcer in Rats (Bonfils et al, Therapie, 1960, 15, 1096).
Six Sprague - Dawley male rats (100-120 g) fasted for 24 hours were used for each group. A square flexible small-mesh wire netting was used for immobilization. After 4 hours immobilization the rats were sacrificed, their stomachs were removed, and lesions counted under a dissecting microscope.
The results obtained are reported below in Table 1, wherein the values are given as ED50.
The compounds were administered subcutaneously (s.c.) immediately before the immobilization or orally (os) one hour before.

gastric secretion = assay: Inhibition of Gastric Secretion in Rats (pylorus ligature); format: in vivo, Sprague-Dawley rats (male); conditions: Rattus norvegicus, sc, 4 h, s.c. at the time of ligature, read-out: ED50 Antisecretory s.c.
Experimental: (2) Inhibition of Gastric Secretion in Rats (Shay, Gastroenterology, 1945, 43, 5).
Gastric antisecretory activity was evaluated in rats by the pylorus ligature technique. Six Sprague-Dawley male rats (110-130 g) were used for each group. Twenty-four hours before the test, the rats were deprived of food but their water supply was maintained. On the day of the operation, the pylorus was ligated under light ether anaesthesia. Four hours after the ligature, the rats were sacrificed, the stomach secretion was collected and centrifuged at 3500 r.p.m. for 10 minutes, and the volume, less sediment, was determined.
The amount of the free hydrochloric acid in the gastric juice was determined by titration against 0.01 N sodium hydroxide, using Topfer's Indicator. Each compound was injected subcutaneously at the time of ligature.

[1] = Anticholinergic Activity in Rats; parameters: species or system Sprague-Dawley rats (male); conditions: rat, in vivo
Experimental: (3) Anticholinergic Activity in Rats. Considering that many anti-ulcer agents display, as does atropine, a remarkable but undesired anti-cholinergic activity, some derivatives were assessed for their antagonism against chromodacryorrhea induced by carbacholine in rats. (Winburg M. et al, J. Pharm. Exp. Therap., 1949, 95, 53).

[2] = tested on: acetylsalicylic acid-induced gastric ulcers; assay: Inhibition of Acetylsalicylic Acid-Induced Gastric Ulcers in Rats; format: in vivo, Sprague-Dawley rats (male); conditions: Rattus norvegicus, 4 h
Experimental: (4) Inhibition of Acetylsalicylic Acid-Induced Gastric Ulcers in Rats.
Six Sprague-Dawley male rats (200-250 g) were used for each group. Twenty-four hours before the test, the rats were deprived of food but their water supply was maintained. Acetylsalicylic acid (100 mg/Kg) suspended in 5% gum arabic solution was given orally to the rats. Antagonists, at 3 dose levels, were given orally 60 minutes, and subcutaneously 30 minutes, before the acetylsalicylic acid treatment.
After sacrificing the animals, four hours after administration of the antagonist, the stomachs were removed, slightly inflated and immersed in 1% formalin solution for 10 minutes for fixation.
Subsequently, the stomachs were incised along the greater curvature and the lengths of lesions measured under a dissecting microscope (10 X) with a square grid. The sum of the lengths (mm) of the lesions per rat was used as the ulcer index. The percentage inhibition was calculated in respect of the ulcer index of the control group.

[3] = tested on: cysteamine-induced duodenal lesions; assay: Inhibition of Cysteamine-Induced Duodenal Lesions in Rats; format: in vivo, Sprague-Dawley rats (male); conditions: Rattus norvegicus
Experimental: (5) Inhibition of Cysteamine-Induced Duodenal Lesions in Rats.
Six Sprague-Dawley male rats (200-225 g) were used for each group. Twenty-four hours before the test, the rats were deprived of food but allowed free access to water. Cysteamine HCl (400 mg/Kg) dissolved in physiological saline was administered subcutaneously.
Antagonists were given orally 60 minutes, and subcutaneously 30 minutes, before the cysteamine treatment. The animals were kept fasting completely for 18-24 hours after cysteamine administration, then sacrificed by an overdose of ether.
The stomach and duodenum of each rat were excised to determine the presence of gastroduodenal lesions. The sum of the area (mm^2) of lesions for each rat was measured under a dissecting microscope (10X) with a square grid and then used as an ulcer index. The percentage inhibition was calculated in respect of the ulcer index of the control group.

Toxicity (LD50) in mice = conditions: mouse, in vivo, po, os
Experimental: Four compounds were examined also for the activity on acetylsalicyclic acid- and cysteamine-induced ulcers and their toxicity was also determined in mice.

[4] = po, 1 h, orally one hour before immobilization, read-out: ED50 Antiulcer os
[5] = sc, 4 h, s.c. immediately before the immobilization, read-out: ED50 Antiulcer s.c.
[6] = po, os, read-out: ED50 Anticholinergic os
[7] = sc, read-out: ED50 Anticholinergic s.c.
[8] = po, orally 60 minutes before acetylsalicylic acid, read-out: ED50 Acetylsalicilic acid os
[9] = sc, s.c. 30 minutes before acetylsalicylic acid, read-out: ED50 Acetylsalicilic acid s.c.
[10] = po, orally 60 minutes before cysteamine, read-out: ED50 Cysteamine os
[11] = sc, s.c. 30 minutes before cysteamine, read-out: ED50 Cysteamine s.c.

With `CCC1c2ncn(CC)c2CCN1C(=S)NC(C)C` (stereo not drawn) [I C2 H5 C2 H5 i.Pr, 1,4-Diethyl-5-(N-isopropylthiocarbamoyl)-4,5,6,7-tetrahydroimidazo-[4,5-c]-pyridine] the ED50 (restraint ulcer; [4]) was 3.5 mg/kg, the ED50 (restraint ulcer; [5]) was 2 mg/kg and the ED50 (gastric secretion) was 6 mg/kg. For the same compound, the ED50 [1, 6] was greater than 400 mg/kg, the ED50 [1, 7] was greater than 200 mg/kg and the ED50 [2, 8] was 0.7 mg/kg. It also gave an ED50 [2, 9] of 0.7 mg/kg, an ED50 [3, 10] of 10 mg/kg and an ED50 [3, 11] of 0.5 mg/kg. It also gave an LD50 (Toxicity (LD50) in mice) greater than 2500 mg/kg.

With `CCC1c2ncn(C)c2CCN1C(=S)NC(C)C` (stereo not drawn) [I CH3 C2 H5 i.Pr, 1-Methyl-4-ethyl-5-(N-isopropylthiocarbamoyl)-4,5,6,7-tetrahydroimidazo-[4,5-c]-pyridine] the ED50 (restraint ulcer; [4]) was 2.5 mg/kg, the ED50 (restraint ulcer; [5]) was 4 mg/kg and the ED50 (gastric secretion) was 20 mg/kg. The ED50 [1, 6] was greater than 100 mg/kg, the ED50 [1, 7] was greater than 100 mg/kg and the ED50 [2, 8] was 20 mg/kg. It also gave an ED50 [2, 9] of 10 mg/kg, an ED50 [3, 10] of 40 mg/kg and an ED50 [3, 11] of 20 mg/kg. The LD50 (Toxicity (LD50) in mice) was greater than 2500 mg/kg.

Compound `CNC(=S)N1CCc2c(ncn2C)C1` [I CH3 H CH3, 1-Methyl-5-(N-methylthiocarbamoyl)-4,5,6,7-tetrahydroimidazo-[4,5-c]-pyridine] has an ED50 (restraint ulcer; [4]) of 25 mg/kg, an ED50 (restraint ulcer; [5]) of 15 mg/kg and an ED50 (gastric secretion) of 30 mg/kg. The ED50 [1, 6] was greater than 100 mg/kg and the ED50 [1, 7] was greater than 100 mg/kg.

For `CC(C)NC(=S)N1CCc2c(ncn2C)C1` [I CH3 H i.Pr, 1-Methyl-5-(N-isopropylthiocarbamoyl)-4,5,6,7-tetrahydroimidazo-[4,5-c]-pyridine], the ED50 (restraint ulcer; [4]) was 4.5 mg/kg, the ED50 (restraint ulcer; [5]) was 1.2 mg/kg and the ED50 (gastric secretion) was 26 mg/kg. The ED50 [1, 6] was 100 mg/kg and the ED50 [1, 7] was 25 mg/kg.

For `CCC1c2c(ncn2CC)CCN1C(=S)NC(C)C` (stereo not drawn) [II C2 H5 C2 H5 i.Pr, 3,4-diethyl-5-(N-isopropylthiocarbamoyl)-4,5,6,7-tetrahydroimidazo-[4,5-c]-pyridine, reference compound], the ED50 (gastric secretion) was 10 mg/kg, the ED50 [1, 6] was greater than 100 mg/kg and the ED50 [1, 7] was greater than 100 mg/kg. For the same compound, the ED50 [2, 8] was 9 mg/kg, the ED50 [2, 9] was 6.5 mg/kg and the ED50 [3, 10] was 40 mg/kg. It also gave an ED50 [3, 11] of 5.5 mg/kg and an LD50 (Toxicity (LD50) in mice) of 870 mg/kg.

`CCC1c2c(ncn2C)CCN1C(=S)NC(C)C` (stereo not drawn) [II CH3 C2 H5 i.Pr, 3-Methyl-4-ethyl-5-(N-isopropylthiocarbamoyl)-4,5,6,7-tetrahydroimidazo-[4,5-c]-pyridine, reference compound] gave an ED50 (restraint ulcer; [4]) of 50 mg/kg, an ED50 (restraint ulcer; [5]) of 10 mg/kg and an ED50 (gastric secretion) of 50 mg/kg. It also gave an ED50 [1, 6] of 60 mg/kg, an ED50 [1, 7] of 40 mg/kg and an ED50 [2, 8] of 40 mg/kg. It also gave an ED50 [2, 9] of 25 mg/kg, an ED50 [3, 10] of 100 mg/kg and an ED50 [3, 11] of 50 mg/kg. The LD50 (Toxicity (LD50) in mice) was 980 mg/kg.

With `CNC(=S)N1CCc2ncn(C)c2C1` [II CH3 H CH3, reference compound] the ED50 (restraint ulcer; [4]) was 50 mg/kg, the ED50 (restraint ulcer; [5]) was 50 mg/kg and the ED50 (gastric secretion) was 50 mg/kg. The ED50 [1, 6] was 100 mg/kg and the ED50 [1, 7] was 50 mg/kg.

In the case of `CC(C)NC(=S)N1CCc2ncn(C)c2C1` [II CH3 H i.Pr, 3-Methyl-5-(N-isopropylthiocarbamoyl)-4,5,6,7-tetrahydroimidazo-[4,5-c]-pyridine], the ED50 [1, 6] is reported as 50 mg/kg and the ED50 [1, 7] is reported as 7 mg/kg.

With `C/N=C(\S)NCCSCc1[nH]cnc1C` [Methiamide] the ED50 [1, 6] was 85 mg/kg and the ED50 [1, 7] was 65 mg/kg.
